{"source": "paper PMC8301423", "about": "“The Effects of Temperature and Pressure on Protein-Ligand Binding in the Presence of Mars-Relevant Salts” (Biology, 2021)", "key": {"[1]": {"target": "T1, bovine serum albumin (BSA) (Bos taurus, UniProt P02769)", "T1 construct": "BSA, molecular weight of 66 kDa, 583 residues; purchased Sigma Aldrich Chemicals (Taufkirchen, Germany)", "T1 sequence (P02769 25-607)": "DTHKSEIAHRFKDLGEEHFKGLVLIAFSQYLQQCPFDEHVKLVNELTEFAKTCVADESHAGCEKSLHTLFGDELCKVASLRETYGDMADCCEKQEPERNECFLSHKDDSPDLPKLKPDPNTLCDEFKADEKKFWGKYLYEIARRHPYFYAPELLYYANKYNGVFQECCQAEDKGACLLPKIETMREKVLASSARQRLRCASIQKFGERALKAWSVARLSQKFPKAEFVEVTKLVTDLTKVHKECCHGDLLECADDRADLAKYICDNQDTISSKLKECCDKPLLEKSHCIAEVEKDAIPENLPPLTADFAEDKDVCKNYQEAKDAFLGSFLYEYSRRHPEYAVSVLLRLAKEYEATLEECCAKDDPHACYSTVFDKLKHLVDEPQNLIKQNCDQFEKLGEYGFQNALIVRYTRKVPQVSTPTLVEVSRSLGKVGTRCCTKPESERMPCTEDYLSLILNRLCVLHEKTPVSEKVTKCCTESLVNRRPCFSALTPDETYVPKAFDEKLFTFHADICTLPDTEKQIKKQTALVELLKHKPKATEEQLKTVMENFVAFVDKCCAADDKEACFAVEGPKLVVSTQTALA", "experiment": "Steady-state fluorescence titration of ANS with BSA at ambient pressure (binding isotherms)", "settings": "for Kd: 1 bar, 10 mM Tris-HCl pH 7.4", "text": "The extent of complex formation between ANS and BSA was followed by means of steady-state fluorescence spectroscopy using a K2 fluorometer from ISS, Inc. (Champaign, IL, USA). The binding isotherms were obtained by recording ANS emission spectra by exciting the solutions at 350 nm and recording the emission intensities in the range 400–550 nm. The width slits of the excitation and emission monochromators were both set to 8 nm. Briefly, a series of solutions with a fixed concentration of ANS at ~5 µM were prepared, and the concentration of BSA was varied between 0 and ~40 µM. Then estimation of the binding constants (Kb) was performed by using a plot of ΔF = F − F0 (where F is the fluorescence intensity of ANS at the maximum in the presence of BSA, and F0 is the intensity of ANS in the absence of BSA) as a function of total BSA concentration and fitting the experimental data according to an equivalent and independent binding sites model or to two classes of non-equivalent and independent binding-site models, as described in detail in Reference.\nOnce the stoichiometries of the complex in the presence of the salts and at the three different temperatures are known, it is possible to estimate the binding constants, Kb, performing titration experiments by means of steady-state fluorescence spectroscopy. In these experiments, a solution of ANS was titrated with a BSA solution. The ANS is characterized by a very low quantum yield when it is free in solution [21]. Instead, when the aromatic ligand is bound to the protein’s hydrophobic pockets, a strong increase of the fluorescence intensity is observed. Thus, the extent of binding can be readily determined by following the fluorescence increase of ANS. The subsequent data analysis was performed according to the stoichiometries inferred by the Job’s plot experiments."}, "[2]": {"target": "T1, bovine serum albumin (BSA)", "experiment": "Job's plot (method of continuous variation) by steady-state fluorescence for binding stoichiometry", "settings": "1 bar", "experimental": "First, we explored the impact of 250 mM MgCl2, Mg(ClO4)2, and MgSO4 on the ligand binding process at 25 °C and ambient pressure (1 bar). To be able to determine the binding constant, it is of fundamental importance to exactly know the stoichiometry of the complex formed. In this way, a proper binding model can be applied in the data analysis of the measured binding isotherms, providing the most appropriate value of the binding constant, Kb. We applied the method of continuous variation (or Job’s plot) for the estimation of the binding stoichiometry by means of steady-state fluorescence spectroscopy. A series of solutions were prepared such that the total concentration (i.e., [ANS] + [BSA]) is constant, while the mole fractions of the interacting partners were varied. Discontinuities in the plot of fluorescence intensity vs. xANS (where xANS is the mole fraction of ANS) are indicative of the stoichiometry of the complex formed."}, "[3]": {"settings": "250 mM Mg(ClO4)2, 25 °C, [ANS]+[BSA] 35 µM"}}}
{"compound": "O=S(=O)(O)c1cccc2cccc(Nc3ccccc3)c12", "note": "[ANS, 8-anilinonaphthalene-1-sulfonic acid]", "values": [{"measurement": "Decrease of Kb on decreasing the temperature from 25 to 15 °C", "setting": "[1]; 250 mM MgCl2, 1 bar", "result": "~ 90%"}, {"measurement": "Kd", "setting": "[1]; Binding constant Kb1, 250 mM Mg(ClO4)2, 5 °C", "result": 5.26, "unit": "µM"}, {"measurement": "Kd", "setting": "[1]; Binding constant Kb1, 250 mM Mg(ClO4)2, 15 °C", "result": 6.67, "unit": "µM"}, {"measurement": "Kd", "setting": "[1]; Binding constant Kb1, 250 mM Mg(ClO4)2, 25 °C", "result": 1.69, "unit": "µM"}, {"measurement": "Kd", "setting": "[1]; Binding constant Kb1, 250 mM MgCl2, 5 °C", "result": "1 ± 0.1", "unit": "µM"}, {"measurement": "Kd", "setting": "[1]; Binding constant Kb1, 250 mM MgCl2, 15 °C", "result": 2.78, "unit": "µM"}, {"measurement": "Kd", "setting": "[1]; Binding constant Kb1, 250 mM MgCl2, 25 °C", "result": 0.204, "unit": "µM"}, {"measurement": "Kd", "setting": "[1]; Binding constant Kb1, 250 mM MgSO4, 5 °C", "result": 1.61, "unit": "µM"}, {"measurement": "Kd", "setting": "[1]; Binding constant Kb1, 250 mM MgSO4, 15 °C", "result": 2.56, "unit": "µM"}, {"measurement": "Kd", "setting": "[1]; Binding constant Kb1, 250 mM MgSO4, 25 °C", "result": 0.345, "unit": "µM"}, {"measurement": "Kd", "setting": "[1]; Binding constant Kb2, 250 mM Mg(ClO4)2, 5 °C", "result": 5.26, "unit": "µM"}, {"measurement": "Kd", "setting": "[1]; Binding constant Kb2, 250 mM Mg(ClO4)2, 15 °C", "result": 7.69, "unit": "µM"}, {"measurement": "Kd", "setting": "[1]; Binding constant Kb2, 250 mM Mg(ClO4)2, 25 °C", "result": 0.833, "unit": "µM"}, {"measurement": "ANS molecules bound to one BSA molecule", "setting": "[2]; 250 mM Mg(ClO4)2, 25 °C", "result": "two"}, {"measurement": "Job's plot first inflection point xANS", "setting": "[2]; [3]", "result": 0.5}, {"measurement": "Job's plot second inflection point xANS", "setting": "[2]; [3]", "result": "≈ 0.65"}, {"measurement": "Job's plot inflection point xANS (mole fraction of ANS)", "setting": "[2]; 250 mM MgCl2, 25 °C, [ANS]+[BSA] 35 µM", "result": "≈ 0.75"}, {"measurement": "ANS molecules bound to one BSA molecule", "setting": "[2]; 250 mM MgSO4, 25 °C", "result": "three"}, {"measurement": "Job's plot inflection point xANS (mole fraction of ANS)", "setting": "[2]; 250 mM MgSO4, 25 °C, [ANS]+[BSA] 35 µM", "result": "≈ 0.75"}]}
